# Assay results reported in US20260295038A1, “GLYCOLIPID DERIVATIVE AS MINCLE LIGAND” (priority 2023, published 2026).
# Molecular target: T1, bovine Mincle (Bos taurus, UniProt E1BHM0)
# T1 construct: mouse T-cell hybridoma with FcRgamma), plate assay
# T1 sequence (E1BHM0 1-211): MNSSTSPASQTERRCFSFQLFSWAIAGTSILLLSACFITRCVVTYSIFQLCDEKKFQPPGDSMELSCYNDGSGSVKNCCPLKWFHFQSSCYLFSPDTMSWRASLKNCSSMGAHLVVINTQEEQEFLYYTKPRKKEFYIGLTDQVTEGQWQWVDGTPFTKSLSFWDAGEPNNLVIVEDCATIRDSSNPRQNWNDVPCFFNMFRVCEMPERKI
# Experiment: Mincle ligand activity, NFAT-GFP reporter cells expressing bovine Mincle (Experimental Example 1)
# Assay type: cell-based
# Conditions: 0.03 to 3 nmol, FIG. 1 right
# Description: Similarly, using NFAT-GFP reporter cells expressing bovine Mincle, prepared according to the method described in a literature (Yamasaki, S. et al, Nat Immunol 9, 1179-88(2008)), the ligand activity of HD-276 was evaluated on a 96-well plate. The doses of the test compounds (horizontal axis) were 0.03 to 3 (nmol) from the left to right.
smiles,measurement,value
CCCCCCc1ccc(O[C@@H]2OC(C)[C@H](O)[C@H](OC)C2O[C@@H]2OC(C)[C@H](O[C@@H]3OC(COC)[C@@H](O)C(O)[C@@H]3O)[C@H](OC)C2OC)cc1 (stereo in doubt) [HD-276],Mincle ligand activity,confirmed to have Mincle ligand activity
